{"source": "patent US20040224884A1", "about": "“Methods of screening for apoptosis-controlling agents for bone anabolic therapies and uses thereof” (priority 1998, published 2004)", "biological_target": "T1, human ERα (Homo sapiens, UniProt P03372)", "T1 construct": "expressed in transfected cells; host or cells: 293 human embryonic kidney cells", "T1 sequence (P03372 1-595)": "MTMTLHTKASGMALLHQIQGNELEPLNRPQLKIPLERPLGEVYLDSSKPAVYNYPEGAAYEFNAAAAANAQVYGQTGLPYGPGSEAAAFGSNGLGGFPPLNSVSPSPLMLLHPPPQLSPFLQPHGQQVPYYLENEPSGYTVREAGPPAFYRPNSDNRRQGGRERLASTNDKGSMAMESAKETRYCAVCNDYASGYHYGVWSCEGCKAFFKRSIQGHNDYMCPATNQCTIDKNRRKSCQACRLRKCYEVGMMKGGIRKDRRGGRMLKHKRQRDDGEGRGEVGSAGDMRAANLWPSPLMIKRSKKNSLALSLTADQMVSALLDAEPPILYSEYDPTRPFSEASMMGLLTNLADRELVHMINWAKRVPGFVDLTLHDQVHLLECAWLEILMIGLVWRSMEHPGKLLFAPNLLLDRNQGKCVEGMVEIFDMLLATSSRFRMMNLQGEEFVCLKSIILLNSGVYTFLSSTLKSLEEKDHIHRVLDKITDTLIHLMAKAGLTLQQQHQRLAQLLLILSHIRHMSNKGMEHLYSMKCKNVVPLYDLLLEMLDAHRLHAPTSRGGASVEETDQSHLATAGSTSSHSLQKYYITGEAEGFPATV", "experiment": "ERE-luciferase reporter in 293 cells overexpressing hERα", "format": "cell-based", "conditions": "3 copies of ERE driving luciferase", "text": "The human ERα was overexpressed in 293 cells lacking ERα along with a reporter construct containing 3 copies of a n estrogen response element driving the luciferase gene. Light units were counted and normalized to coexpressed b-galactosidase activity to control for differences in transfection efficiency. Results represent percent stimulation compared to ERα transfected cells, but not treated with the two agents. Each bar represents mean of duplicate experiments +/−SEM. *p<0.001 vs. cells not exposed to the sterols.\nIn this experiment, hERα was overexpressed in 293 cells (which lack constitutive ERα) along with a reporter construct containing 3 copies of an estrogen response element driving the luciferase gene. Light units were counted and normalized to coexpressed β-galactosidase activity to control for differences in transfection efficiency."}
{"smiles": "C[C@@]12CCC[C@H]1[C@@H]1CCc3cc(O)ccc3[C@H]1CC2", "note": "[estratriene-3-ol]", "values": [{"measurement": "transactivation of an estrogen response element through estrogen receptor α", "value": "did not transactivate"}]}
